Laboratory results taken from BigSolDB 2.1.

O=C(O)CCCCCCCC(=O)O
Conditions	solubility (mole fraction)
in acetic acid, 289.05 K	0.022
in acetic acid, 293.95 K	0.0279
in acetic acid, 298.85 K	0.0355
in acetic acid, 303.45 K	0.0452
in acetic acid, 308.35 K	0.0582
in acetic acid, 313.35 K	0.0746
in acetic acid, 318.85 K	0.0964
in acetic acid, 325.35 K	0.132
in acetic acid, 330.95 K	0.169
in acetic acid, 337.35 K	0.223
in acetic acid, 341.75 K	0.265
in acetone, 276.65 K	0.00895
in acetone, 279.45 K	0.0103
in acetone, 283.15 K	0.0129
in acetone, 286.95 K	0.0158
in acetone, 294.15 K	0.0228
in acetone, 297.55 K	0.0275
in acetone, 303.05 K	0.0365
in acetone, 306.55 K	0.0438
in acetone, 312.05 K	0.0587
in acetone, 316.15 K	0.0732
in acetone, 320.95 K	0.1
in acetone, 325.35 K	0.12
in ethanol, 276.75 K	0.0212
in ethanol, 280.05 K	0.0253
in ethanol, 283.25 K	0.0292
in ethanol, 288.15 K	0.0362
in ethanol, 293.05 K	0.0449
in ethanol, 297.55 K	0.0546
in ethanol, 304.05 K	0.069
in ethanol, 307.35 K	0.083
in ethanol, 312.05 K	0.0969
in ethanol, 317.05 K	0.117
in ethanol, 322.05 K	0.143
in ethanol, 326.85 K	0.166
in ethanol, 332.05 K	0.202
in ethanol, 336.55 K	0.234
in ethylene glycol, 278.65 K	0.0083
in ethylene glycol, 283.35 K	0.01
in ethylene glycol, 288.05 K	0.0105
in ethylene glycol, 292.85 K	0.0144
in ethylene glycol, 297.35 K	0.0241
in ethylene glycol, 303.35 K	0.03
in ethylene glycol, 307.35 K	0.0395
in ethylene glycol, 312.25 K	0.0496
in ethylene glycol, 317.05 K	0.0622
in ethylene glycol, 321.55 K	0.0791
in ethylene glycol, 326.45 K	0.103
in ethylene glycol, 331.35 K	0.131
in ethylene glycol, 336.15 K	0.167
